Assay results as given in the NIST ThermoML archive (doi:10.1021/je4004806).
Numbers after ± are expanded uncertainties.

Columns and labels:
[1] = 101 kPa, Liquid; for viscosity: Capillary tube (Ostwald / Ubbelohde) method; for mass density: Vibrating tube method
[2] = xn = mol fraction of the nth substance listed; conditions: 101 kPa, Liquid; for viscosity: Capillary tube (Ostwald / Ubbelohde) method; for mass density: Vibrating tube method

CCCCO [butan-1-ol]
[1]
Conditions | mass density [kg/m3] | viscosity [mPa·s]
293.15 K | 809.53 ± 0.12 | 2.968 ± 0.017
298.15 K | 805.7 ± 0.12 | 2.602 ± 0.016
303.15 K | 801.86 ± 0.12 | 2.292 ± 0.015
308.15 K | 797.99 ± 0.12 | 2.025 ± 0.013
313.15 K | 794.1 ± 0.12 | 1.796 ± 0.013
318.15 K | 790.18 ± 0.12 | 1.59 ± 0.012
323.15 K | 786.21 ± 0.13 | 1.414 ± 0.011

CCCCO [butan-1-ol] + CCCCCCCC
[2], x2 = 0
Conditions | mass density [kg/m3] | viscosity [mPa·s]
293.15 K | 809.53 ± 0.12 | 2.968 ± 0.017
298.15 K | 805.7 ± 0.12 | 2.602 ± 0.016
303.15 K | 801.86 ± 0.12 | 2.292 ± 0.015
308.15 K | 797.99 ± 0.12 | 2.025 ± 0.013
313.15 K | 794.1 ± 0.12 | 1.796 ± 0.013
318.15 K | 790.18 ± 0.12 | 1.59 ± 0.012
323.15 K | 786.21 ± 0.13 | 1.414 ± 0.011

CCO [ethanol]
[1]
Conditions | mass density [kg/m3]
293.15 K | 790.91 ± 0.12
298.15 K | 786.6 ± 0.12
303.15 K | 782.28 ± 0.12
308.15 K | 777.94 ± 0.13
313.15 K | 773.56 ± 0.13
318.15 K | 769.15 ± 0.13
323.15 K | 764.69 ± 0.13

CCO [ethanol] + CCCCCCCC
[2], x2 = 0
Conditions | mass density [kg/m3]
293.15 K | 790.91 ± 0.12
298.15 K | 786.6 ± 0.12
303.15 K | 782.28 ± 0.12
308.15 K | 777.94 ± 0.13
313.15 K | 773.56 ± 0.13
318.15 K | 769.15 ± 0.13
323.15 K | 764.69 ± 0.13

CCCCCCCC [octane]
[1]
Conditions | mass density [kg/m3] | viscosity [mPa·s]
293.15 K | 702.54 ± 0.15 | 0.545 ± 0.009
298.15 K | 698.49 ± 0.15 | 0.513 ± 0.009
303.15 K | 694.44 ± 0.16 | 0.485 ± 0.009
308.15 K | 690.37 ± 0.16 | 0.459 ± 0.009
313.15 K | 686.29 ± 0.16 | 0.433 ± 0.009
318.15 K | 682.19 ± 0.16 | 0.412 ± 0.008
323.15 K | 678.08 ± 0.16 | 0.392 ± 0.008

CCCCCCCC [octane] + CCCCCO
[2], x1 = 1
Conditions | mass density [kg/m3] | viscosity [mPa·s]
293.15 K | 702.54 ± 0.15 | 0.545 ± 0.009
298.15 K | 698.49 ± 0.15 | 0.513 ± 0.009
303.15 K | 694.44 ± 0.16 | 0.485 ± 0.009
308.15 K | 690.37 ± 0.16 | 0.459 ± 0.009
313.15 K | 686.29 ± 0.16 | 0.433 ± 0.009
318.15 K | 682.19 ± 0.16 | 0.412 ± 0.008
323.15 K | 678.08 ± 0.16 | 0.392 ± 0.008

CCCCCCCC [octane] + CCO
mass density [kg/m3], [2]
Conditions | x1 = 0.1008 | x1 = 0.2015 | x1 = 0.2998 | x1 = 0.4008 | x1 = 0.4663 | x1 = 0.6008 | x1 = 0.6991 | x1 = 0.7931 | x1 = 0.9031 | x1 = 1
293.15 K | 766.88 ± 0.81 | 750.57 ± 0.58 | 738.83 ± 0.44 | 729.83 ± 0.36 | 724.97 ± 0.3 | 716.77 ± 0.27 | 712.03 ± 0.23 | 708.31 ± 0.21 | 704.73 ± 0.19 | 702.54 ± 0.15
298.15 K | 762.56 ± 0.81 | 746.27 ± 0.58 | 734.53 ± 0.44 | 725.55 ± 0.37 | 720.68 ± 0.29 | 712.52 ± 0.27 | 707.81 ± 0.23 | 704.12 ± 0.21 | 700.59 ± 0.19 | 698.49 ± 0.15
303.15 K | 758.23 ± 0.81 | 741.94 ± 0.58 | 730.2 ± 0.44 | 721.22 ± 0.37 | 716.37 ± 0.29 | 708.23 ± 0.27 | 703.55 ± 0.23 | 699.9 ± 0.21 | 696.43 ± 0.19 | 694.44 ± 0.16
308.15 K | 753.87 ± 0.81 | 737.57 ± 0.58 | 725.83 ± 0.44 | 716.86 ± 0.37 | 712.02 ± 0.29 | 703.91 ± 0.27 | 699.27 ± 0.23 | 695.65 ± 0.21 | 692.24 ± 0.19 | 690.37 ± 0.16
313.15 K | 749.47 ± 0.81 | 733.15 ± 0.58 | 721.42 ± 0.44 | 712.46 ± 0.37 | 707.63 ± 0.29 | 699.56 ± 0.27 | 694.94 ± 0.23 | 691.37 ± 0.21 | 688.03 ± 0.19 | 686.29 ± 0.16
318.15 K | 745.03 ± 0.81 | 728.69 ± 0.58 | 716.96 ± 0.44 | 708 ± 0.37 | 703.19 ± 0.29 | 695.15 ± 0.27 | 690.58 ± 0.23 | 687.05 ± 0.21 | 683.78 ± 0.19 | 682.19 ± 0.16
323.15 K | 740.54 ± 0.82 | 724.18 ± 0.58 | 712.45 ± 0.44 | 703.5 ± 0.36 | 698.69 ± 0.3 | 690.7 ± 0.27 | 686.17 ± 0.23 | 682.7 ± 0.21 | 679.51 ± 0.18 | 678.08 ± 0.16

CCCCCO [pentan-1-ol]
[1]
Conditions | mass density [kg/m3] | viscosity [mPa·s]
293.15 K | 814.59 ± 0.11 | 4.042 ± 0.022
298.15 K | 810.93 ± 0.12 | 3.518 ± 0.02
303.15 K | 807.24 ± 0.12 | 3.06 ± 0.018
308.15 K | 803.53 ± 0.12 | 2.659 ± 0.016
313.15 K | 799.79 ± 0.12 | 2.334 ± 0.015
318.15 K | 796.03 ± 0.12 | 2.042 ± 0.013
323.15 K | 792.23 ± 0.12 | 1.805 ± 0.013

CCCO [propan-1-ol]
[1]
Conditions | mass density [kg/m3] | viscosity [mPa·s]
293.15 K | 803.84 ± 0.12 | 2.21 ± 0.014
298.15 K | 799.85 ± 0.12 | 1.962 ± 0.013
303.15 K | 795.81 ± 0.12 | 1.746 ± 0.012
308.15 K | 791.74 ± 0.12 | 1.556 ± 0.012
313.15 K | 787.64 ± 0.13 | 1.386 ± 0.011
318.15 K | 783.55 ± 0.13 | 1.242 ± 0.011
323.15 K | 779.32 ± 0.13 | 1.115 ± 0.01

CCCO [propan-1-ol] + CCCCCCCC
[2], x2 = 0
Conditions | mass density [kg/m3] | viscosity [mPa·s]
293.15 K | 803.84 ± 0.12 | 2.21 ± 0.014
298.15 K | 799.85 ± 0.12 | 1.962 ± 0.013
303.15 K | 795.81 ± 0.12 | 1.746 ± 0.012
308.15 K | 791.74 ± 0.12 | 1.556 ± 0.012
313.15 K | 787.64 ± 0.13 | 1.386 ± 0.011
318.15 K | 783.55 ± 0.13 | 1.242 ± 0.011
323.15 K | 779.32 ± 0.13 | 1.115 ± 0.01
